The subject of test [1] is TS-induced neutrophil influx in BALF. The test is described as follows: BALF neutrophilia induced by tobacco smoke exposure in mice. In kind it is in vivo, C57BL6J female mice. The conditions noted are these: 0.3 mg/kg i.n., 4 days TS exposure. Here is the method: C57BL6J female mice aged 9–10 weeks (Harlan Laboratories S.r.l) in groups of 8 were exposed, via whole-body inhalation, twice daily 1 h apart, for 4 consecutive days, to the tobacco smoke (TS) (generated using “Marlboro Gold: 9 mg of tar and 0.7 mg nicotine”) of two cigarettes/exposure on days 1 and 2, three cigarettes/exposure on day 3, and four cigarettes/exposure on the last exposure day in clear polycarbonate chambers (27 cm × 16 cm × 12 cm). The smoke was introduced into the exposure chambers (21100-790 Ugo Basile, Biological Research Instruments, Comerio, Varese, Italy), with the airflow generated by using a mechanical ventilator (7025 Rodent Ventilator, Ugo Basile). Each exposure chamber was connected to a different ventilator set at a rate of 100 mL/min (frequency: 50 strokes/min; volume: 2 mL/stroke). At regular intervals (after burning two cigarettes), the exposure chambers were opened and aired. Sham and control mice were exposed to air only in the same manner for the same duration of time.
CHF6297 (0.03 and 0.3 mg/kg) and budesonide (0.3 mg/kg), our reference compound and vehicle (0.2% Tween 80 in saline), respectively, were administered intranasally in a volume of 30 µL, 1 h before and 5 h after TS exposure under light isoflurane anesthesia.
A BAL was performed using a volume of 0.6 mL of phosphate-buffered saline that was gently instilled and withdrawn three times using a 12-mL syringe. BALF cells were separated by centrifugation (10 min at 3,070 g), and the supernatant was removed. The resulting cell pellet was resuspended in a known volume of PBS, and the total cell numbers were calculated by counting a stained (Turk’s stain) aliquot under a microscope using a hemacytometer. The cell pellet was resuspended to approximately 10^5 cells per ml, and cytospin slides were prepared by centrifugation (8 min at 72.26 g; Shandon Cytospin; Thermo Shandon Ltd., Runcorn, Cheshire, United Kingdom). The slides were air-dried and stained using Wright–Giemsa stain, following the manufacturer’s instructions. A differential cell count was performed using light microscopy. Approximately 400 cells were counted from each slide. The cells were identified using standard morphometric techniques.

Test [2] relates to IAV-induced airway neutrophilia in HDM-challenged mice. As to the kind of experiment: Influenza virus A (H3N2)-induced exacerbation in HDM-sensitized mice. It counts as in vivo, Balb/c mice. The conditions noted are these: 100 μg/kg twice daily for 3 days.
Test [3] has as its system i.v. LPS-induced TNF-α in blood. The test is described as follows: Intravenous LPS-induced TNF-α release in rat blood. In kind it is in vivo, rats. Particulars: oral gavage, i.v. LPS.
The test system of test [4] is HBSMCs. As to the kind of experiment: CSE-evoked IL-8 release in human bronchial smooth muscle cells. In kind it is cell-based. On the procedure: Cigarette smoke extract (CSE) was generated as reported previously ([Moretto et al., 2012]). Briefly, aqueous CSE was obtained from the combustion of four cigarettes (Marlboro Red, 12 mg tar, 0.9 mg nicotine each) bubbled through 50 mL of the culture medium and subsequently filtered through a 0.2-μm-pore filter (Millipore, Billerica, MA). To ensure reproducibility among different CSE batches, the absorbance [optical density (OD)] measured at 320 nm was used as a measure of the “strength” of the extract. Dilutions were made with culture media to obtain the desired absorbance. The CSE was freshly prepared on the day of the experiment and immediately used after preparation. Human bronchial smooth muscle cells (HBSMCs) were seeded in DMEM with 10% FBS (50 U/mL penicillin, 0.05 mg/mL streptomycin, and 2 mM L-glutamine) in 48-well plates at a density of 10,000 cells/well, grown to ∼80%–90% confluence and incubated overnight in serum-free DMEM before treatments. All the treatments were performed in serum-free DMEM. The cells were pretreated for 30 min with either the vehicle or CHF6297 or losmapimod before stimulation with freshly prepared CSE, TNF-α, (1 ng/mL), or the vehicle for 18 h at 37°C. Human IL-8 was measured in the collected supernatants by use of a paired-antibody quantitative ELISA kit (BioSource International, Camarillo, CA).

Test [5] relates to rat PBMCs. As to the kind of experiment: TNF-α release in LPS-stimulated PBMCs. It counts as cell-based. Particulars: PBMC, LPS 10 ng/mL, 18 h. Here is the method: Peripheral blood mononuclear cells (PBMCs) were isolated from the blood of healthy human volunteers and Wistar rats (250–350 gr; Charles River, Calco, Italy) using a standard density gradient centrifugation technique. The citrated blood was placed onto Histopaque^TM and centrifuged. The PBMCs were then removed from the density gradient interface and washed in phosphate-buffered saline (PBS). The PBMCs were suspended in RPMI 1640 medium (without serum), aliquoted into a 96-well plate, and incubated at 37°C for 3 h in a humidified incubator. After incubation, the medium was replaced (with a medium containing 1% fetal bovine serum), and the plate was incubated at 37°C, for 1 h, in the presence of a test compound or the appropriate vehicle. LPS (10 ng/mL), or an appropriate vehicle control, was then added to the cells, and the plate was returned to the incubator for 18 h. Cell-free supernatants were removed and assayed for TNF-α levels using MSD plates on the SECTOR Imager 6000 (Meso Scale).

SMILES strings stand for the structures.

Take `CCCC1O[C@@H]2C[C@H]3[C@@H]4CCC5=CC(=O)C=C[C@]5(C)[C@H]4[C@@H](O)C[C@]3(C)[C@]2(C(=O)CO)O1` (stereo partly drawn) [budesonide, reference compound]: the “neutrophils in BALF” value in test [1] is listed as 0.5 ± 0.1 × 10^5 cells/mL. Also, the “neutrophils in BAL fluid” value in test [2] is 2.08 ± 0.23 × 10^5 cells/mL.

For the molecule `Cc1c(F)cc(C(=O)NC2CC2)cc1-c1ccc(C(=O)NCC(C)(C)C)cn1` [losmapimod, reference compound], the “effect on TNF-α levels in blood” value in test [3] is “marked reduction in TNF-α levels”. Besides, in test [4] (CSE-evoked), the “maximum inhibition of IL-8” value is recorded as 100%. In addition, the IC50 came out at 0.00913 µM in test [4] (Homo sapiens, 18 h) and 0.0119 µM in test [5].

Usually IC50 stands for the concentration at which inhibition is half-maximal. The low end stands for higher potency, the high end for lower potency.

The values are drawn from article PMC10973839, “CHF6297: a novel potent and selective p38 MAPK inhibitor with robust anti-inflammatory activity and suitable for inhaled pulmonary administration as dry powder” (Frontiers in Pharmacology, 2024).
